Source: article PMC5218480 (PLoS ONE, 2017)

Tested on: MV-4-11 cells
Assay: Gene expression microarray analysis (Affymetrix PrimeView) and GSEA
Type: cell-based, human
Set-up: RFU PODN (11730768_x_at) / Fold change /veh PODN (11730768_x_at) / RFU LINC00158 (11744669_a_at) / Fold change /veh LINC00158 (11744669_a_at) / RFU DUSP10 (11751237_a_at) / Fold change /veh DUSP10 (11751237_a_at) / RFU ID3 (11757404_x_at) / Fold change /veh ID3 (11757404_x_at) / RFU PLEKHG5 (11737974_s_at) / Fold change /veh PLEKHG5 (11737974_s_at) / RFU LRRC4B (11730491_at) / Fold change /veh LRRC4B (11730491_at) / RFU GIMAP4 (11747438_a_at) / Fold change /veh GIMAP4 (11747438_a_at) / RFU KRT8 (11758183_x_at) / Fold change /veh KRT8 (11758183_x_at) / RFU CNN1 (11734310_a_at) / Fold change /veh CNN1 (11734310_a_at) / RFU VPS37D (11726825_at) / Fold change /veh VPS37D (11726825_at) / RFU C10orf10 (11716522_x_at) / Fold change /veh C10orf10 (11716522_x_at) / RFU KIR2DL2 /// KIR2DL4 /// KIR2DL5A /// KIR2DL5B /// KIR2DS1 /// KIR2DS2 /// KIR2DS3 /// KIR2DS4 /// KIR3DL3 /// KIR3DL3 /// KIR3DS1 (11738374_at) / Fold change /veh KIR2DL2 /// KIR2DL4 /// KIR2DL5A /// KIR2DL5B /// KIR2DS1 /// KIR2DS2 /// KIR2DS3 /// KIR2DS4 /// KIR3DL3 /// KIR3DL3 /// KIR3DS1 (11738374_at) / RFU C1QL1 (11718748_at) / Fold change /veh C1QL1 (11718748_at) / RFU TMPRSS4 (11747572_a_at) / Fold change /veh TMPRSS4 (11747572_a_at) / RFU HAMP (11756126_x_at) / Fold change /veh HAMP (11756126_x_at) / RFU RNFT2 (11725882_a_at) / Fold change /veh RNFT2 (11725882_a_at) / RFU NR4A2 (11747474_a_at) / Fold change /veh NR4A2 (11747474_a_at) / RFU ABCC12 (11746883_a_at) / Fold change /veh ABCC12 (11746883_a_at) / RFU TMEM136 (11760407_x_at) / Fold change /veh TMEM136 (11760407_x_at) / RFU CLDN22 /// WWC2 (11732394_at) / Fold change /veh CLDN22 /// WWC2 (11732394_at) / RFU HLA-DPB1 (11760878_x_at) / Fold change /veh HLA-DPB1 (11760878_x_at) / RFU SPINT1 (11716480_a_at) / Fold change /veh SPINT1 (11716480_a_at) / RFU GAP43 (11754022_s_at) / Fold change /veh GAP43 (11754022_s_at) / RFU A4GNT (11735810_at) / Fold change /veh A4GNT (11735810_at) / RFU PRB3 (11715151_x_at) / Fold change /veh PRB3 (11715151_x_at) / RFU TUBB4B (11761932_at) / Fold change /veh TUBB4B (11761932_at) / RFU CAPN14 (11732068_a_at) / Fold change /veh CAPN14 (11732068_a_at) / RFU TMCC2 (11721928_a_at) / Fold change /veh TMCC2 (11721928_a_at) / RFU IRGQ (11745062_a_at) / Fold change /veh IRGQ (11745062_a_at) / RFU FAM174B (11720279_a_at) / Fold change /veh FAM174B (11720279_a_at) / RFU TMPRSS4 (11748680_a_at) / Fold change /veh TMPRSS4 (11748680_a_at) / RFU FAM212B (11763350_a_at) / Fold change /veh FAM212B (11763350_a_at) / RFU PLEKHG5 (11743358_a_at) / Fold change /veh PLEKHG5 (11743358_a_at) / RFU ZSCAN30 (11745921_a_at) / Fold change /veh ZSCAN30 (11745921_a_at) / RFU CMKLR1 (11741424_a_at) / Fold change /veh CMKLR1 (11741424_a_at) / RFU LOC101060620 /// MAPK8IP1 (11723275_at) / Fold change /veh LOC101060620 /// MAPK8IP1 (11723275_at) / RFU SPTSSB (11747773_x_at) / Fold change /veh SPTSSB (11747773_x_at) / RFU PRSS12 (11739890_at) / Fold change /veh PRSS12 (11739890_at) / RFU BIN1 (11741810_x_at) / Fold change /veh BIN1 (11741810_x_at) / RFU WNT11 (11732464_a_at) / Fold change /veh WNT11 (11732464_a_at) / RFU C10orf10 (11716521_a_at) / Fold change /veh C10orf10 (11716521_a_at) / RFU C5orf56 (11738089_at) / Fold change /veh C5orf56 (11738089_at) / RFU CYB561 (11721691_x_at) / Fold change /veh CYB561 (11721691_x_at) / RFU ANKRD19P (11752326_a_at) / Fold change /veh ANKRD19P (11752326_a_at) / RFU OR2T12 /// OR2T33 /// OR2T8 (11738714_s_at) / Fold change /veh OR2T12 /// OR2T33 /// OR2T8 (11738714_s_at) / RFU VCAN (11748164_a_at) / Fold change /veh VCAN (11748164_a_at) / RFU JSRP1 (11732532_at) / Fold change /veh JSRP1 (11732532_at) / RFU KRTAP10-11 (11738290_x_at) / Fold change /veh KRTAP10-11 (11738290_x_at) / RFU MYO3A (11730013_a_at) / Fold change /veh MYO3A (11730013_a_at) / RFU EBF3 (11725865_a_at) / Fold change /veh EBF3 (11725865_a_at) / RFU CAMK2N1 (11719241_x_at) / Fold change /veh CAMK2N1 (11719241_x_at) / RFU C5orf56 (11738088_a_at) / Fold change /veh C5orf56 (11738088_a_at) / RFU OLFML3 (11715873_a_at) / Fold change /veh OLFML3 (11715873_a_at) / RFU LOC100653217 /// NTM (11731650_a_at) / Fold change /veh LOC100653217 /// NTM (11731650_a_at) / RFU MAPK11 (11762145_a_at) / Fold change /veh MAPK11 (11762145_a_at) / RFU FIZ1 (11724087_x_at) / Fold change /veh FIZ1 (11724087_x_at) / RFU OASL (11726364_x_at) / Fold change /veh OASL (11726364_x_at) / RFU SOX15 (11748057_x_at) / Fold change /veh SOX15 (11748057_x_at) / RFU CD79A (11719716_a_at) / Fold change /veh CD79A (11719716_a_at) / RFU HIST1H1D (11736915_at) / Fold change /veh HIST1H1D (11736915_at) / RFU CASKIN2 (11723855_a_at) / Fold change /veh CASKIN2 (11723855_a_at) / RFU LOC730098 (11760151_x_at) / Fold change /veh LOC730098 (11760151_x_at) / RFU OR4N2 (11742367_at) / Fold change /veh OR4N2 (11742367_at) / RFU PRRT2 (11749266_a_at) / Fold change /veh PRRT2 (11749266_a_at) / RFU SNX32 (11753110_a_at) / Fold change /veh SNX32 (11753110_a_at) / RFU CDHR5 (11726645_a_at) / Fold change /veh CDHR5 (11726645_a_at) / RFU RCAN1 (11760418_a_at) / Fold change /veh RCAN1 (11760418_a_at) / RFU FAM167A (11723789_a_at) / Fold change /veh FAM167A (11723789_a_at) / RFU FAM26E (11764081_at) / Fold change /veh FAM26E (11764081_at) / RFU ISYNA1 (11749810_s_at) / Fold change /veh ISYNA1 (11749810_s_at) / RFU ACY1 (11761880_at) / Fold change /veh ACY1 (11761880_at) / RFU 11764098_at / Fold change /veh 11764098_at / RFU SAMD14 (11745864_x_at) / Fold change /veh SAMD14 (11745864_x_at) / RFU NPB (11741838_a_at) / Fold change /veh NPB (11741838_a_at) / RFU TMPRSS6 (11731388_a_at) / Fold change /veh TMPRSS6 (11731388_a_at) / RFU KRTAP10-2 (11738614_at) / Fold change /veh KRTAP10-2 (11738614_at) / RFU ARHGAP8 /// PRR5-ARHGAP8 (11727945_x_at) / Fold change /veh ARHGAP8 /// PRR5-ARHGAP8 (11727945_x_at) / RFU KRTAP5-7 /// NADSYN1 (11734609_at) / Fold change /veh KRTAP5-7 /// NADSYN1 (11734609_at) / RFU RASL12 (11751679_a_at) / Fold change /veh RASL12 (11751679_a_at) / RFU CDKN2B (11736163_a_at) / Fold change /veh CDKN2B (11736163_a_at) / RFU PRF1 (11729649_at) / Fold change /veh PRF1 (11729649_at) / RFU, ZNF638 /// ZNF638-IT1 / Fold change vs veh, ZNF638 /// ZNF638-IT1 / RFU, PANK3 / Fold change vs veh, PANK3 / RFU, SH3YL1 / Fold change vs veh, SH3YL1 / RFU, ZEB2 / Fold change vs veh, ZEB2 / RFU, NRIP1 / Fold change vs veh, NRIP1 / RFU, PTTG1IP / Fold change vs veh, PTTG1IP / RFU, CAPN2 / Fold change vs veh, CAPN2 / RFU, MED14 / Fold change vs veh, MED14 / RFU, SNORA58 / Fold change vs veh, SNORA58 / RFU, C1orf63 / Fold change vs veh, C1orf63 / RFU, LRRFIP1 / Fold change vs veh, LRRFIP1 / RFU, NDUFAF7 / Fold change vs veh, NDUFAF7 / RFU, SLC12A2 / Fold change vs veh, SLC12A2 / RFU, IBTK / Fold change vs veh, IBTK / RFU, ESF1 / Fold change vs veh, ESF1 / Fold change vs veh, TMEM50B / RFU, TAOK1 / Fold change vs veh, TAOK1 / RFU, ACBD3 / Fold change vs veh, ACBD3 / RFU, TMA16 / Fold change vs veh, TMA16 / RFU, RWDD3 / Fold change vs veh, RWDD3 / RFU, BCAT1 / Fold change vs veh, BCAT1 / RFU, EDEM3 / Fold change vs veh, EDEM3 / RFU, TMEM33 / Fold change vs veh, TMEM33 / RFU, WDR75 / Fold change vs veh, WDR75 / RFU, AHCTF1 / Fold change vs veh, AHCTF1 / RFU, TFRC / Fold change vs veh, TFRC / RFU, ZDHHC17 / Fold change vs veh, ZDHHC17 / RFU, NOM1 / Fold change vs veh, NOM1 / RFU, ARL8B / Fold change vs veh, ARL8B / RFU, ZBTB11 / Fold change vs veh, ZBTB11 / RFU, TAMM41 / Fold change vs veh, TAMM41 / RFU, KIAA1704 /// LOC100996395 / Fold change vs veh, KIAA1704 /// LOC100996395 / RFU, ING1 / Fold change vs veh, ING1 / RFU, TRMT61B / Fold change vs veh, TRMT61B / RFU, FUBP3 / Fold change vs veh, FUBP3 / RFU, TP53 / Fold change vs veh, TP53 / RFU, TNKS2 / Fold change vs veh, TNKS2 / RFU, ZFP14 / Fold change vs veh, ZFP14 / RFU, ACTR2 / Fold change vs veh, ACTR2 / RFU, PPP3R1 / Fold change vs veh, PPP3R1 / RFU, PIK3R1 / Fold change vs veh, PIK3R1 / RFU, HNRNPA1 / Fold change vs veh, HNRNPA1 / RFU, RNF170 / Fold change vs veh, RNF170 / RFU, ZNF28 / Fold change vs veh, ZNF28 / RFU, RNGTT / Fold change vs veh, RNGTT / RFU, OGT / Fold change vs veh, OGT / RFU, BRD1 / Fold change vs veh, BRD1 / RFU, MARS / Fold change vs veh, MARS / RFU, ZNF655 / Fold change vs veh, ZNF655 / RFU, FAHD1 / Fold change vs veh, FAHD1 / RFU, BDP1 / Fold change vs veh, BDP1 / RFU, LRRCC1 / Fold change vs veh, LRRCC1 / RFU, ARID1A / Fold change vs veh, ARID1A / RFU, ZNF146 / Fold change vs veh, ZNF146 / RFU, ZNF330 / Fold change vs veh, ZNF330 / RFU, GPN3 / Fold change vs veh, GPN3 / RFU, C9orf123 / Fold change vs veh, C9orf123 / RFU, N4BP2L2 / Fold change vs veh, N4BP2L2 / RFU, ARFIP1 / Fold change vs veh, ARFIP1 / RFU, FAM179B / Fold change vs veh, FAM179B / RFU, BCL10 / Fold change vs veh, BCL10 / RFU, UHRF1BP1L / Fold change vs veh, UHRF1BP1L / RFU, BET1 / Fold change vs veh, BET1 / RFU, CNOT2 / Fold change vs veh, CNOT2 / RFU, ZNF268 / Fold change vs veh, ZNF268 / Fold change vs veh, ZNF507 / RFU, DGCR2 / Fold change vs veh, DGCR2 / RFU, WDSUB1 / Fold change vs veh, WDSUB1 / Fold change vs veh, HSP90B1 /// MIR3652 / RFU, ADSS / Fold change vs veh, ADSS / RFU, GK / Fold change vs veh, GK / RFU, ZNF148 / Fold change vs veh, ZNF148 / RFU, TAF9 / Fold change vs veh, TAF9 / RFU, SLC1A5 / Fold change vs veh, SLC1A5 / RFU, SLMO2 / Fold change vs veh, SLMO2 / RFU, ABCC4 / Fold change vs veh, ABCC4 / RFU, LOC101060439 /// RAP1B / Fold change vs veh, LOC101060439 /// RAP1B / RFU, RFX7 / Fold change vs veh, RFX7 / RFU, GTPBP10 / Fold change vs veh, GTPBP10 / RFU, CNEP1R1 / Fold change vs veh, CNEP1R1 / RFU, BIVM-ERCC5 /// ERCC5 / Fold change vs veh, BIVM-ERCC5 /// ERCC5 / RFU, ILF3 / Fold change vs veh, ILF3 / RFU 11762660_at / Fold change /veh 11762660_at / RFU VCAN (11757783_s_at) / Fold change /veh VCAN (11757783_s_at) / RFU DDX43 (11728927_at) / Fold change /veh DDX43 (11728927_at) / RFU KRT8 (11758188_x_at) / Fold change /veh KRT8 (11758188_x_at) / RFU NKD1 (11759106_at) / Fold change /veh NKD1 (11759106_at) / RFU SRD5A1 (11742802_a_at) / Fold change /veh SRD5A1 (11742802_a_at) / RFU TPSAB1 /// TPSB2 (11721975_s_at) / Fold change /veh TPSAB1 /// TPSB2 (11721975_s_at) / RFU GSTM3 (11746129_a_at) / Fold change /veh GSTM3 (11746129_a_at) / RFU IL23R (11737362_x_at) / Fold change /veh IL23R (11737362_x_at) / RFU TMEM51 (11727254_a_at) / Fold change /veh TMEM51 (11727254_a_at) / RFU PIWIL2 (11732686_x_at) / Fold change /veh PIWIL2 (11732686_x_at) / RFU ORM1 (11744905_x_at) / Fold change /veh ORM1 (11744905_x_at) / RFU CCDC152 (11743942_at) / Fold change /veh CCDC152 (11743942_at) / RFU ECM1 (11717891_a_at) / Fold change /veh ECM1 (11717891_a_at) / RFU IL23R (11748794_a_at) / Fold change /veh IL23R (11748794_a_at) / RFU TNFAIP8L3 (11732012_x_at) / Fold change /veh TNFAIP8L3 (11732012_x_at) / RFU MBOAT4 (11741988_at) / Fold change /veh MBOAT4 (11741988_at) / RFU 11764193_at / Fold change /veh 11764193_at / RFU TMEM53 (11763286_at) / Fold change /veh TMEM53 (11763286_at) / RFU MAGEB2 (11727129_at) / Fold change /veh MAGEB2 (11727129_at) / RFU TMEM200A (11744735_a_at) / Fold change /veh TMEM200A (11744735_a_at) / RFU CCDC152 (11751479_a_at) / Fold change /veh CCDC152 (11751479_a_at) / RFU FAM211A (11726209_a_at) / Fold change /veh FAM211A (11726209_a_at) / RFU RGS16 (11746705_a_at) / Fold change /veh RGS16 (11746705_a_at) / RFU VCAN (11755009_s_at) / Fold change /veh VCAN (11755009_s_at) / RFU RHOB (11743442_s_at) / Fold change /veh RHOB (11743442_s_at) / RFU RGS16 (11720943_a_at) / Fold change /veh RGS16 (11720943_a_at) / RFU RGS16 (11720944_at) / Fold change /veh RGS16 (11720944_at) / RFU, VPS4B / Fold change vs veh, VPS4B / RFU, CREB1 / Fold change vs veh, CREB1 / RFU, DNAJC13 / Fold change vs veh, DNAJC13 / RFU, GNAQ / Fold change vs veh, GNAQ / RFU, CDK5R1 / Fold change vs veh, CDK5R1 / RFU, ZRANB3 / Fold change vs veh, ZRANB3 / RFU, CUL4A / Fold change vs veh, CUL4A / RFU, CCNY / Fold change vs veh, CCNY / RFU, UFL1 / Fold change vs veh, UFL1 / RFU, COG3 / Fold change vs veh, COG3 / RFU, DIAPH2 / Fold change vs veh, DIAPH2 / RFU, SKA2 / Fold change vs veh, SKA2 / RFU, AFF3 / Fold change vs veh, AFF3 / RFU, LMF1 / Fold change vs veh, LMF1 / RFU, IPO11 / Fold change vs veh, IPO11 / RFU, DFFB / Fold change vs veh, DFFB / RFU, FOXP1 / Fold change vs veh, FOXP1 / RFU, CARD8 / Fold change vs veh, CARD8 / RFU, STRN3 / Fold change vs veh, STRN3 / RFU, ADK / Fold change vs veh, ADK / RFU, RASSF2 / Fold change vs veh, RASSF2 / RFU, WIPF1 / Fold change vs veh, WIPF1 / RFU, LARP1B / Fold change vs veh, LARP1B / RFU, RASA1 / Fold change vs veh, RASA1 / RFU, RB1 / Fold change vs veh, RB1 / RFU, PPFIA1 / Fold change vs veh, PPFIA1 / RFU, MAT2A / Fold change vs veh, MAT2A / RFU, CCT5 / Fold change vs veh, CCT5 / RFU, WDR92 / Fold change vs veh, WDR92 / RFU, CUX1 / Fold change vs veh, CUX1 / RFU, TTC7A / Fold change vs veh, TTC7A / RFU, TMEM135 / Fold change vs veh, TMEM135 / RFU, DEPTOR / Fold change vs veh, DEPTOR / RFU, CPM / Fold change vs veh, CPM / RFU, DNAJB6 / Fold change vs veh, DNAJB6 / RFU, CACNA2D3 / Fold change vs veh, CACNA2D3 / RFU, DTX4 / Fold change vs veh, DTX4 / RFU, TFCP2 / Fold change vs veh, TFCP2 / RFU, GMCL1 /// GMCL1P1 / Fold change vs veh, GMCL1 /// GMCL1P1 / RFU, AEBP2 / Fold change vs veh, AEBP2 / RFU, SNHG1 /// SNORD22 /// SNORD25 /// SNORD26 /// SNORD27 /// SNORD28 /// SNORD29 /// SNORD31 / Fold change vs veh, SNHG1 /// SNORD22 /// SNORD25 /// SNORD26 /// SNORD27 /// SNORD28 /// SNORD29 /// SNORD31 / Fold change (Aza/veh), C12orf56 (ProbeSet 11735607_a_at) / Fold change (ACY-1035/veh), C12orf56 (ProbeSet 11735607_a_at) / Fold change (Aza/veh), FGFR1OP (ProbeSet 11751329_s_at) / Fold change (ACY-1035/veh), FGFR1OP (ProbeSet 11751329_s_at) / Fold change (Aza/veh), VPS36 (ProbeSet 11739960_a_at) / Fold change (ACY-1035/veh), VPS36 (ProbeSet 11739960_a_at) / RFU SYPL1 (11715823_x_at) / Fold change /veh SYPL1 (11715823_x_at) / RFU IGFBP7 (11715501_s_at) / Fold change /veh IGFBP7 (11715501_s_at) / RFU REEP3 (11722064_at) / Fold change /veh REEP3 (11722064_at) / RFU IGLL1 (11728026_x_at) / Fold change /veh IGLL1 (11728026_x_at): dose or concentration left out as unconfirmed
Details: MV-4-11 cells, 48 hours

`Nc1ncn([C@@H]2O[C@H](CO)[C@@H](O)[C@H]2O)c(=O)n1` [azacitidine] was tested, and the “RFU C5orf56 (11738089_at)” value was 11.14 RFU.
